Measured values published in ChEMBL document CHEMBL4411307, “N,N'-diaryl-bishydrazones in a biphenyl platform: Broad spectrum antifungal agents” (Eur J Med Chem, 2019).
In brackets after ≈: the same amount, converted by molar mass. Activity calls are given as the source filed them. The rule behind the calls is not given here.

Columns and labels:
Listeria monocytogenes = test: Antibacterial activity against Listeria monocytogenes; assay type: functional, organism-based
Staphylococcus aureus = test: Antibacterial activity against methicillin-resistant Staphylococcus aureus; assay type: functional, organism-based
Enterococcus = test: Antibacterial activity against vancomycin-resistant Enterococcus; assay type: functional, organism-based
Candida albicans [1] = test: Antifungal activity against fluconazole/ITC-resistant Candida albicans ATCC 10231 measured after 48 hrs by CLSI M27-A3 protocol based method; assay type: functional; details: ATCC 10231, 48 h
Candida albicans [2] = test: Antifungal activity against fluconazole/ITC-resistant Candida albicans ATCC 64124 measured after 48 hrs by CLSI M27-A3 protocol based method; assay type: functional; details: ATCC 64124, 48 h
Candida albicans [3] = test: Antifungal activity against fluconazole/ITC-susceptible Candida albicans ATCC MYA-2876 measured after 48 hrs by CLSI M27-A3 protocol based method; assay type: functional; details: ATCC MYA-2876, 48 h
Candida albicans [4] = test: Antifungal activity against fluconazole/ITC-resistant Candida albicans ATCC 90819 measured after 48 hrs by CLSI M27-A3 protocol based method; assay type: functional; details: ATCC 90819, 48 h
Candida albicans [5] = test: Antifungal activity against fluconazole/ITC-susceptible Candida albicans ATCC MYA-2310 measured after 48 hrs by CLSI M27-A3 protocol based method; assay type: functional; details: ATCC MYA-2310, 48 h
Candida albicans [6] = test: Antifungal activity against fluconazole/ITC-resistant Candida albicans ATCC MYA-1237 measured after 48 hrs by CLSI M27-A3 protocol based method; assay type: functional; details: ATCC MYA-1237, 48 h
Candida albicans [7] = test: Antifungal activity against fluconazole/ITC-resistant Candida albicans ATCC MYA-1003 measured after 48 hrs by CLSI M27-A3 protocol based method; assay type: functional; details: ATCC MYA-1003, 48 h
Nakaseomyces glabratus = test: Antifungal activity against Candida glabrata ATCC 2001 measured after 48 hrs by CLSI M27-A3 protocol based method; assay type: functional; details: CBS 138, 48 h
Pichia kudriavzevii = test: Antifungal activity against Candida krusei ATCC 6258 measured after 48 hrs by CLSI M27-A3 protocol based method; assay type: functional; details: ATCC 6258, 48 h
Candida parapsilosis = test: Antifungal activity against Candida parapsilosis ATCC 22019 measured after 48 hrs by CLSI M27-A3 protocol based method; assay type: functional; details: Lodderomyces parapsilosis, ATCC 22019, 48 h
Aspergillus flavus = test: Antifungal activity against Aspergillus flavus ATCC MYA-3631 measured after 48 hrs by CLSI M38-A2 protocol based method; assay type: functional; details: ATCC MYA-3631, 48 h
Aspergillus nidulans = test: Antifungal activity against Aspergillus nidulans ATCC 38163 measured after 48 hrs by CLSI M38-A2 protocol based method; assay type: functional; details: ATCC 38163, 48 h
Aspergillus terreus = test: Antifungal activity against Aspergillus terreus ATCC MYA-3633 measured after 48 hrs by CLSI M38-A2 protocol based method; assay type: functional; details: ATCC MYA-3633, 48 h
A549 = test: Cytotoxicity against human A549 cells after 24 hrs by resazurin based assay; assay type: cell-based; details: a549, 24 h
BEAS-2B = test: Cytotoxicity against human BEAS2B cells after 24 hrs by resazurin based assay; assay type: cell-based
[8] = Selectivity index, ratio of CC50 for human A549 cells to MIC for fluconazole/ITC-resistant Candida albicans ATCC 10231; assay type: toxicity; details: read-out: Selectivity Index
[9] = Selectivity index, ratio of CC50 for human A549 cells to MIC for fluconazole/ITC-resistant Candida albicans ATCC 64124; assay type: toxicity; details: read-out: Selectivity Index
[10] = Selectivity index, ratio of CC50 for human A549 cells to MIC for fluconazole/ITC-susceptible Candida albicans ATCC MYA-2876; assay type: toxicity; details: read-out: Selectivity Index
[11] = Selectivity index, ratio of CC50 for human A549 cells to MIC for fluconazole/ITC-resistant Candida albicans ATCC 90819; assay type: toxicity; details: read-out: Selectivity Index
[12] = Selectivity index, ratio of CC50 for human A549 cells to MIC for fluconazole/ITC-susceptible Candida albicans ATCC MYA-2310; assay type: toxicity; details: read-out: Selectivity Index
[13] = Selectivity index, ratio of CC50 for human A549 cells to MIC for fluconazole/ITC-resistant Candida albicans ATCC MYA-1237; assay type: toxicity; details: read-out: Selectivity Index
[14] = Selectivity index, ratio of CC50 for human A549 cells to MIC for fluconazole/ITC-resistant Candida albicans ATCC MYA-1003; assay type: toxicity; details: read-out: Selectivity Index
[15] = Selectivity index, ratio of CC50 for human A549 cells to MIC for Candida glabrata ATCC 2001; assay type: toxicity; details: read-out: Selectivity Index
[16] = Selectivity index, ratio of CC50 for human A549 cells to MIC for Candida krusei ATCC 6258; assay type: toxicity; details: read-out: Selectivity Index
[17] = Selectivity index, ratio of CC50 for human A549 cells to MIC for Candida parapsilosis ATCC 22019; assay type: toxicity; details: read-out: Selectivity Index
[18] = Selectivity index, ratio of CC50 for human A549 cells to MIC for Aspergillus flavus ATCC MYA-3631; assay type: toxicity; details: read-out: Selectivity Index
[19] = Selectivity index, ratio of CC50 for human A549 cells to MIC for Aspergillus nidulans ATCC 38163; assay type: toxicity; details: read-out: Selectivity Index
[20] = Selectivity index, ratio of CC50 for human A549 cells to MIC for Aspergillus terreus ATCC MYA-3633; assay type: toxicity; details: read-out: Selectivity Index
[21] = Hemolytic activity in mouse RBC at […] after 1 hr relative to control; assay type: ADME, cell-based, Erythrocyte; details: red blood cells (erythrocytes), read-out: Activity; also: tested at 0.48 µg/mL
[22] = Hemolytic activity in mouse RBC at […] ug/ml after 1 hr relative to control; assay type: ADME, cell-based, Erythrocyte; details: red blood cells (erythrocytes), read-out: Activity
[23] = Hemolytic activity in mouse RBC at 1.95 ug/ml after 1 hr relative to control; assay type: ADME, cell-based, Erythrocyte; details: red blood cells (erythrocytes), read-out: Activity
[24] = Hemolytic activity in mouse RBC at 3.9 ug/ml after 1 hr relative to control; assay type: ADME, cell-based, Erythrocyte; details: red blood cells (erythrocytes), read-out: Activity
[25] = Hemolytic activity in mouse RBC at 7.8 ug/ml after 1 hr relative to control; assay type: ADME, cell-based, Erythrocyte; details: red blood cells (erythrocytes), read-out: Activity
[26] = Hemolytic activity in mouse RBC at 31.3 ug/ml after 1 hr relative to control; assay type: ADME, cell-based, Erythrocyte; details: red blood cells (erythrocytes), read-out: Activity
[27] = Hemolytic activity in mouse RBC at 62.5 ug/ml after 1 hr relative to control; assay type: ADME, cell-based, Erythrocyte; details: red blood cells (erythrocytes), read-out: Activity
[28] = Selectivity index, ratio of compound concentration showing <20 to <25% hemolysis in mouse RBC to MIC for fluconazole/ITC-resistant Candida albicans ATCC 10231; assay type: toxicity; details: red blood cells (erythrocytes), read-out: Selectivity Index
[29] = Selectivity index, ratio of compound concentration showing <20 to <25% hemolysis in mouse RBC to MIC for fluconazole/ITC-resistant Candida albicans ATCC 64124; assay type: toxicity; details: red blood cells (erythrocytes), read-out: Selectivity Index
[30] = Selectivity index, ratio of compound concentration showing <20 to <25% hemolysis in mouse RBC to MIC for fluconazole/ITC-susceptible Candida albicans ATCC MYA-2876; assay type: toxicity; details: red blood cells (erythrocytes), read-out: Selectivity Index
[31] = Selectivity index, ratio of compound concentration showing <20 to <25% hemolysis in mouse RBC to MIC for fluconazole/ITC-resistant Candida albicans ATCC 90819; assay type: toxicity; details: red blood cells (erythrocytes), read-out: Selectivity Index
[32] = Selectivity index, ratio of compound concentration showing <20 to <25% hemolysis in mouse RBC to MIC for fluconazole/ITC-susceptible Candida albicans ATCC MYA-2310; assay type: toxicity; details: red blood cells (erythrocytes), read-out: Selectivity Index
[33] = Selectivity index, ratio of compound concentration showing <20 to <25% hemolysis in mouse RBC to MIC for fluconazole/ITC-resistant Candida albicans ATCC MYA-1237; assay type: toxicity; details: red blood cells (erythrocytes), read-out: Selectivity Index
[34] = Selectivity index, ratio of compound concentration showing <20 to <25% hemolysis in mouse RBC to MIC for fluconazole/ITC-resistant Candida albicans ATCC MYA-1003; assay type: toxicity; details: red blood cells (erythrocytes), read-out: Selectivity Index
[35] = Selectivity index, ratio of compound concentration showing <20 to <25% hemolysis in mouse RBC to MIC for Candida glabrata ATCC 2001; assay type: toxicity; details: red blood cells (erythrocytes), read-out: Selectivity Index
[36] = Selectivity index, ratio of compound concentration showing <20 to <25% hemolysis in mouse RBC to MIC for Candida krusei ATCC 6258; assay type: toxicity; details: red blood cells (erythrocytes), read-out: Selectivity Index
[37] = Selectivity index, ratio of compound concentration showing <20 to <25% hemolysis in mouse RBC to MIC for Candida parapsilosis ATCC 22019; assay type: toxicity; details: red blood cells (erythrocytes), read-out: Selectivity Index
[38] = Selectivity index, ratio of compound concentration showing <20 to <25% hemolysis in mouse RBC to MIC for Aspergillus flavus ATCC MYA-3631; assay type: toxicity; details: red blood cells (erythrocytes), read-out: Selectivity Index
[39] = Selectivity index, ratio of compound concentration showing <20 to <25% hemolysis in mouse RBC to MIC for Aspergillus nidulans ATCC 38163; assay type: toxicity; details: red blood cells (erythrocytes), read-out: Selectivity Index
[40] = Selectivity index, ratio of compound concentration showing <20 to <25% hemolysis in mouse RBC to MIC for Aspergillus terreus ATCC MYA-3633; assay type: toxicity; details: red blood cells (erythrocytes), read-out: Selectivity Index

C(=N\Nc1ccccc1)/c1ccc(-c2cccc(/C=N/Nc3ccccc3)c2)cc1
Activity (Listeria monocytogenes): inactive
Activity (Staphylococcus aureus): inactive
Activity (Enterococcus): inactive
MIC (Candida albicans [1]): 1.95 µg/mL (≈ 4.99 µM)
MIC (Candida albicans [2]): 31.3 µg/mL (≈ 80.2 µM)
MIC (Candida albicans [3]): 31.3 µg/mL (≈ 80.2 µM)
MIC (Candida albicans [4]): 31.3 µg/mL (≈ 80.2 µM)
MIC (Candida albicans [5]): 31.3 µg/mL (≈ 80.2 µM)
MIC (Candida albicans [6]): 31.3 µg/mL (≈ 80.2 µM)
MIC (Candida albicans [7]): 3.9 µg/mL (≈ 9.99 µM)
MIC (Nakaseomyces glabratus): > 31.3 µg/mL
MIC (Pichia kudriavzevii): 7.8 µg/mL (≈ 20 µM)
MIC (Candida parapsilosis): > 31.3 µg/mL
MIC (Aspergillus flavus): 3.9 µg/mL (≈ 9.99 µM)
MIC (Aspergillus nidulans): 1.95 µg/mL (≈ 4.99 µM)
MIC (Aspergillus terreus): 15.6 µg/mL (≈ 39.9 µM)
CC50 (A549): > 31 µg/mL
CC50 (BEAS-2B): > 31 µg/mL
selectivity ratio [8]: 16
selectivity ratio [9]: 1
selectivity ratio [10]: 1
selectivity ratio [11]: 1
selectivity ratio [12]: 1
selectivity ratio [13]: 1
selectivity ratio [14]: 4
selectivity ratio [15]: 1
selectivity ratio [16]: 4
selectivity ratio [17]: 1
selectivity ratio [18]: 8
selectivity ratio [19]: 16
selectivity ratio [20]: 2
hemolysis at 1 h, […] [21]: 0%
hemolysis at 1 h, 15.6 ug/ml ([22]; at 15.6 µg/mL): 14.1%
hemolysis at 1 h, 0.975 ug/ml [22]: 0%
hemolysis at 1 h, 1.95 ug/ml [23]: 3.5%
hemolysis at 1 h, 3.9 ug/ml [24]: 1.5%
hemolysis at 1 h, 7.8 ug/ml [25]: 8.5%
hemolysis at 1 h, 31.3 ug/ml [26]: 16.7%
hemolysis at 1 h, 62.5 ug/ml [27]: 23.6%
selectivity ratio [28]: 1 to 32
selectivity ratio [29]: 1 to 32
selectivity ratio [30]: 1 to 32
selectivity ratio [31]: 1 to 32
selectivity ratio [32]: 1 to 32
selectivity ratio [33]: 1 to 32
selectivity ratio [34]: 1 to 32
selectivity ratio [35]: 1 to 32
selectivity ratio [36]: 1 to 32
selectivity ratio [37]: 1 to 32
selectivity ratio [38]: 1 to 32
selectivity ratio [39]: 1 to 32
selectivity ratio [40]: 1 to 32
